Measured values reported in the supplement of paper PMC11208160.

Assay: recombinant UMI read abundance after kanamycin selection (control-corrected) (log10(CPM+1)); higher = more efficient recombination; extreme values may be limits of the assay; sequences stand for … in AGTGCAGAGAAAATCGGCCAGTTTTCTCTGCCTGCAGTCCGCATGCCGTGGGACCCCTTGGGTTCTAACCTGTTGCCTAGATTTATGCAGCGGACTGCCTTTCTCCCAAAGTGATAAACCGG…AGGTTGGTTTCACT; site = the 11-nt donor
Summary of the method: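 Two replicates each of selected and unselected plating were used in this pooled Escherichia coli screen of donor and donor-binding-loop pairs for the IS621 bridge recombinase. Selection was with IPTG (0.07 mM) and kanamycin. Counts of recombinant UMIs, amplified across the donor–target junction, were converted to CPM, averaged, scaled by control-derived factors and reported as log10(CPM+1).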
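Note: IS621 bridge recombinase in Escherichia coli cells against a fixed T5 target plasmid.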

“TATTTGGCATGGACCGGTTTTCCCGGTAATCCGTATTTGTG (site TATTTGGCTAA)” and “TATTTGGCATGGACCGGTTTTCCCGGTAATCCGTATTTGTG (site TATTTGGCTCA)” are within 0.2 log units of each other in “recombinant UMI read abundance (log10)” value: 0.0123 for the first, 0.0246 for the second.

“TATTTGGCATGGACCGGTTTTCCCGGTAATCCGTATTTGTG (site TATTTGGCTCC)” and “TATTTGGCATGGACCGGTTTTCCCGGTAATCCGTATTTGTG (site TATTTGGCTCG)” are within 0.2 log units of each other in “recombinant UMI read abundance (log10)” value: 0.0133 for the first, 0.00904 for the second.

“TATTTGGCATGGACCGGTTTTCCCGGTAATCCGTATTTGTG (site TATTTGGCTCT)” and “TATTTGGCATGGACCGGTTTTCCCGGTAATCCGTATTTGTG (site TATTTGGCTGA)” are within 0.2 log units of each other in “recombinant UMI read abundance (log10)” value: 0.0103 for the first, 0 for the second.

“TATTTGGCATGGACCGGTTTTCCCGGTAATCCGTATTTGTG (site TATTTGGCTTA)” and “TATTTGGCATGGACCGGTTTTCCCGGTAATCCGTATTTGTG (site TATTTGTCTCA)” are within 0.2 log units of each other in “recombinant UMI read abundance (log10)” value: 0.0236 for the first, 0.0606 for the second.

“TATTTGGCATGGACCGGTTTTCCCGGTAATCCGTATTTGTG (site TATTTTGCTCA)” and “TATTTGGCATGGACCGGTTTTCCCGGTAATCCGTATTTGTG (site TCTTTGGCTCA)” are within 0.2 log units of each other in “recombinant UMI read abundance (log10)” value: 0.0154 for the first, 0.00921 for the second.

“TATTTGGCATGGACCGGTTTTCCCGGTAATCCGTATTTGTG (site TGTTTGGCTCA)” and “TATTTGGCATGGACCGGTTTTCCCGGTAATCCGTATTTGTG (site TTTTTGGCTCA)” are within 0.2 log units of each other in “recombinant UMI read abundance (log10)” value: 0.00811 for the first, 0.0282 for the second.

Compared with “TCAAAGACATGGACCGGTTTTCCCGGTAATCCGTATTTGCG (site TCAAAGACTCG)”, “TCAAAGACATGGACCGGTTTTCCCGGTAATCCGTATTTGCG (site TCACAGACTCG)” is lower in “recombinant UMI read abundance (log10)” value: 1.9 for the first, 0.546 for the second.

“TCAAAGACATGGACCGGTTTTCCCGGTAATCCGTATTTGCG (site TCAGAGACTCG)” and “TCAAAGACATGGACCGGTTTTCCCGGTAATCCGTATTTGCG (site TCATAGACTCG)” are within 0.2 log units of each other in “recombinant UMI read abundance (log10)” value: 0.87 for the first, 0.773 for the second.

“TCAACCGCATGGACCGGTTTTCCCGGTAATCCGTATTTGCG (site TCAACCGCTCG)” and “TCAACCGCATGGACCGGTTTTCCCGGTAATCCGTATTTGCG (site TCCACCGCTCG)” are the same in “recombinant UMI read abundance (log10)” value: 0 for the first, 0 for the second.

“TCAACCGCATGGACCGGTTTTCCCGGTAATCCGTATTTGCG (site TCGACCGCTCG)” and “TCAACCGCATGGACCGGTTTTCCCGGTAATCCGTATTTGCG (site TCTACCGCTCG)” are within 0.2 log units of each other in “recombinant UMI read abundance (log10)” value: 0.00292 for the first, 0 for the second.

First: TCAACGGCATGGACCGGTTTTCCCGGTAATCCGTATTTGCC (site TCAACGGCTGG)
Second: TCAAGCACATGGACCGGTTTTCCCGGTAATCCGTATTTGAT (site TCAAGCACTAT)
The “recombinant UMI read abundance (log10)” value of the first is lower: 0.143 for the first, 1.94 for the second.

First: TCAAGTCCATGGACCGGTTTTCCCGGTAATCCGTATTTGTA (site TAAAGTCCTTA)
Second: TCAAGTCCATGGACCGGTTTTCCCGGTAATCCGTATTTGTA (site TCAAGTCCTTA)
The “recombinant UMI read abundance (log10)” value of the first is lower: 0.314 for the first, 1.01 for the second.

“TCAAGTCCATGGACCGGTTTTCCCGGTAATCCGTATTTGTA (site TGAAGTCCTTA)” and “TCAAGTCCATGGACCGGTTTTCCCGGTAATCCGTATTTGTA (site TTAAGTCCTTA)” are within 0.2 log units of each other in “recombinant UMI read abundance (log10)” value: 0.226 for the first, 0.0663 for the second.

“TCAATGACATGGACCGGTTTTCCCGGTAATCCGTATTTGGT (site TCAATGACTAC)” and “TCACACCCATGGACCGGTTTTCCCGGTAATCCGTATTTGCC (site TCACACCCTGG)” are within 0.2 log units of each other in “recombinant UMI read abundance (log10)” value: 0.953 for the first, 0.92 for the second.

Going from “TCACAGACATGGACCGGTTTTCCCGGTAATCCGTATTTGCG (site TCAAAGACTCG)” to “TCACAGACATGGACCGGTTTTCCCGGTAATCCGTATTTGCG (site TCACAGACTCG)”, the “recombinant UMI read abundance (log10)” value rises from 0.308 to 2.16.

“TCACAGACATGGACCGGTTTTCCCGGTAATCCGTATTTGCG (site TCAGAGACTCG)” and “TCACAGACATGGACCGGTTTTCCCGGTAATCCGTATTTGCG (site TCATAGACTCG)” are within 0.2 log units of each other in “recombinant UMI read abundance (log10)” value: 0.267 for the first, 0.29 for the second.

“TCACATCCATGGACCGGTTTTCCCGGTAATCCGTATTTGAC (site ACACATCCTGT)” and “TCACATCCATGGACCGGTTTTCCCGGTAATCCGTATTTGAC (site CCACATCCTGT)” are the same in “recombinant UMI read abundance (log10)” value: 0 for the first, 0 for the second.

“TCACATCCATGGACCGGTTTTCCCGGTAATCCGTATTTGAC (site GCACATCCTGT)” and “TCACATCCATGGACCGGTTTTCCCGGTAATCCGTATTTGAC (site TCACATCCTGT)” are the same in “recombinant UMI read abundance (log10)” value: 0 for the first, 0 for the second.

“TCACCCGCATGGACCGGTTTTCCCGGTAATCCGTATTTGGT (site TCACCCGCTAC)” and “TCACCTTCATGGACCGGTTTTCCCGGTAATCCGTATTTGGT (site TCACCTTCTAC)” are within 0.2 log units of each other in “recombinant UMI read abundance (log10)” value: 0.206 for the first, 0.0163 for the second.

Going from “TCACGAACATGGACCGGTTTTCCCGGTAATCCGTATTTGTC (site ACACGAACTGA)” to “TCACGAACATGGACCGGTTTTCCCGGTAATCCGTATTTGTC (site CCACGAACTGA)”, the “recombinant UMI read abundance (log10)” value rises from 0 to 0.736.

“TCACGAACATGGACCGGTTTTCCCGGTAATCCGTATTTGTC (site GCACGAACTGA)” and “TCACGAACATGGACCGGTTTTCCCGGTAATCCGTATTTGTC (site TCACGAACTGA)” are the same in “recombinant UMI read abundance (log10)” value: 0 for the first, 0 for the second.

Compared with “TCACGAGCATGGACCGGTTTTCCCGGTAATCCGTATTTGAA (site TCACGAGCTTT)”, “TCACGCACATGGACCGGTTTTCCCGGTAATCCGTATTTGAC (site TCACGCACTGT)” is lower in “recombinant UMI read abundance (log10)” value: 1.23 for the first, 0.943 for the second.

First: TCACGCGCATGGACCGGTTTTCCCGGTAATCCGTATTTGCT (site TCACGCGCTAG)
Second: TCACGGACATGGACCGGTTTTCCCGGTAATCCGTATTTGCT (site TCACGGACTAG)
The “recombinant UMI read abundance (log10)” value of the first is higher: 1.67 for the first, 1.43 for the second.

Compared with “TCAGAAACATGGACCGGTTTTCCCGGTAATCCGTATTTGCG (site TCAGAAACTCG)”, “TCAGAAACATGGACCGGTTTTCCCGGTAATCCGTATTTGCG (site TCAGACACTCG)” is lower in “recombinant UMI read abundance (log10)” value: 1.86 for the first, 0.0112 for the second.

First: TCAGAAACATGGACCGGTTTTCCCGGTAATCCGTATTTGCG (site TCAGAGACTCG)
Second: TCAGAAACATGGACCGGTTTTCCCGGTAATCCGTATTTGCG (site TCAGATACTCG)
The “recombinant UMI read abundance (log10)” value of the first is higher: 2.47 for the first, 0.202 for the second.

Compared with “TCAGAAACATGGACCGGTTTTCCCGGTAATCCGTATTTGTA (site TCAGAAACTTA)”, “TCAGACACATGGACCGGTTTTCCCGGTAATCCGTATTTGCG (site TCAGAAACTCG)” is lower in “recombinant UMI read abundance (log10)” value: 2.07 for the first, 0 for the second.

Going from “TCAGACACATGGACCGGTTTTCCCGGTAATCCGTATTTGCG (site TCAGACACTCG)” to “TCAGACACATGGACCGGTTTTCCCGGTAATCCGTATTTGCG (site TCAGAGACTCG)”, the “recombinant UMI read abundance (log10)” value falls from 1.77 to 0.0043.

Going from “TCAGACACATGGACCGGTTTTCCCGGTAATCCGTATTTGCG (site TCAGATACTCG)” to “TCAGAGACATGGACCGGTTTTCCCGGTAATCCGTATTTGAA (site TCAGAGACTTT)”, the “recombinant UMI read abundance (log10)” value rises from 0.946 to 1.74.

First: TCAGAGACATGGACCGGTTTTCCCGGTAATCCGTATTTGCA (site TCAGAGACTAG)
Second: TCAGAGACATGGACCGGTTTTCCCGGTAATCCGTATTTGCA (site TCAGAGACTCG)
The “recombinant UMI read abundance (log10)” value of the first is lower: 0.204 for the first, 1.34 for the second.

First: TCAGAGACATGGACCGGTTTTCCCGGTAATCCGTATTTGCA (site TCAGAGACTGG)
Second: TCAGAGACATGGACCGGTTTTCCCGGTAATCCGTATTTGCA (site TCAGAGACTTG)
The “recombinant UMI read abundance (log10)” value of the first is lower: 0.635 for the first, 2.49 for the second.

“TCAGAGACATGGACCGGTTTTCCCGGTAATCCGTATTTGCC (site TCAGAGACTAG)” and “TCAGAGACATGGACCGGTTTTCCCGGTAATCCGTATTTGCC (site TCAGAGACTCG)” are within 0.2 log units of each other in “recombinant UMI read abundance (log10)” value: 0.85 for the first, 0.683 for the second.

“TCAGAGACATGGACCGGTTTTCCCGGTAATCCGTATTTGCC (site TCAGAGACTGG)” and “TCAGAGACATGGACCGGTTTTCCCGGTAATCCGTATTTGCC (site TCAGAGACTTG)” are within 0.2 log units of each other in “recombinant UMI read abundance (log10)” value: 1.58 for the first, 1.62 for the second.

First: TCAGAGACATGGACCGGTTTTCCCGGTAATCCGTATTTGCT (site TCAGAGACTAG)
Second: TCAGAGACATGGACCGGTTTTCCCGGTAATCCGTATTTGCT (site TCAGAGACTCG)
The “recombinant UMI read abundance (log10)” value of the first is higher: 2.38 for the first, 0.601 for the second.

Going from “TCAGAGACATGGACCGGTTTTCCCGGTAATCCGTATTTGCT (site TCAGAGACTGG)” to “TCAGAGACATGGACCGGTTTTCCCGGTAATCCGTATTTGCT (site TCAGAGACTTG)”, the “recombinant UMI read abundance (log10)” value falls from 2.21 to 0.868.

“TCAGAGACATGGACCGGTTTTCCCGGTAATCCGTATTTGGG (site TCAGAGACTCA)” and “TCAGAGACATGGACCGGTTTTCCCGGTAATCCGTATTTGGG (site TCAGAGACTCC)” are within 0.2 log units of each other in “recombinant UMI read abundance (log10)” value: 0.0103 for the first, 0 for the second.

“TCAGAGACATGGACCGGTTTTCCCGGTAATCCGTATTTGGG (site TCAGAGACTCG)” and “TCAGAGACATGGACCGGTTTTCCCGGTAATCCGTATTTGGG (site TCAGAGACTCT)” are within 0.2 log units of each other in “recombinant UMI read abundance (log10)” value: 0 for the first, 0.0246 for the second.

Going from “TCAGATTCATGGACCGGTTTTCCCGGTAATCCGTATTTGGA (site TCAGATTCTTC)” to “TCAGGGACATGGACCGGTTTTCCCGGTAATCCGTATTTGGG (site TCAGGGACTCC)”, the “recombinant UMI read abundance (log10)” value falls from 1.34 to 0.00795.

For “TCAGGTTCATGGACCGGTTTTCCCGGTAATCCGTATTTGCT (site TCAGGTTCTAG)”, the “recombinant UMI read abundance (log10)” value was 1.27.
